Test results from the supplement of paper PMC10702517.
± gives the standard deviation.

Columns and labels:
[1] = chemical recovery from spiked human plasma; higher = better extraction; conditions: pooled human plasma
[2] = chemical recovery into PDMS from spiked human plasma; higher = better extraction; conditions: pooled human plasma, extraction method: PES with PDMS
[3] = chemical recovery by SPE of plasma after PDMS sampling; higher = better extraction; conditions: pooled human plasma, extraction method: HLB SPE of plasma after PES
[4] = extraction method: SPE only (HLB 96-well)
[5] = extraction method: SPE only (HLB 96-well), PES comparison experiment
[6] = extraction method: solvent precipitation (ACN + hexane)
[7] = extraction method: PES+SPE (3 d PDMS equilibration then HLB SPE)
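For chemical recovery by SPE of plasma after PDMS sampling in this document: over 400 spiked chemicals quantified by LC-HRMS or GC-HRMS via internal standard calibration, recovery relative to spike mix added to unspiked plasma extract to correct matrix effects.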

Compound	chemical recovery [1, 4] [%]	chemical recovery into PDMS ([2]; equilibration time (d): 1) [%]	chemical recovery into PDMS ([2]; equilibration time (d): 3) [%]	chemical recovery into PDMS ([2]; equilibration time (d): 6) [%]	chemical recovery by SPE of plasma ([3]; equilibration time (d): 1) [%]	chemical recovery by SPE of plasma ([3]; equilibration time (d): 3) [%]	chemical recovery by SPE of plasma ([3]; equilibration time (d): 6) [%]	chemical recovery [1, 5] [%]	chemical recovery [1, 6] [%]	chemical recovery [1, 7] [%]
CCCCCCCCc1cccc(Nc2ccccc2)c1CCCCCCCC [Dioctyldiphenylamine]	7.45 ± 4.7	3.85 ± 3.4	5.97 ± 3	6.08 ± 2.5	0.988 ± 0.82	0.992 ± 0.41	0.785 ± 0.37			
CC[C@@]1([C@@H]2O[C@@H]([C@H]3O[C@@](O)(CO)[C@H](C)C[C@@H]3C)C[C@@H]2C)CC[C@H]([C@]2(C)CC[C@]3(C[C@H](O)[C@@H](C)[C@@H]([C@@H](C)[C@@H](OC)[C@H](C)C(=O)O)O3)O2)O1 [Monensin]		37.1 ± 2.8	38.6 ± 0.52	37.8 ± 2.2	3.19 ± 0.8	2.26 ± 0.39	1.33 ± 0.27	29.9 ± 6.6	1.03 ± 1.8	
CCCCOCCOCCOCc1cc2c(cc1CCC)OCO2 [Piperonyl butoxide]		46.4 ± 3.2	48.7 ± 3.9	46 ± 2.6	0.249 ± 0.12	0.337 ± 0.29	0.24 ± 0.013	39.5 ± 6.4		
CCNc1nc(Cl)nc(NC(C)(C)C)n1 [Terbuthylazine]	61.8 ± 2.3	37 ± 1	41.3 ± 3.5	41.4 ± 1.7	1.41 ± 0.15	1.28 ± 0.32	0.724 ± 0.021	45.8 ± 8	69.5 ± 7.1	64.8 ± 10
O=[N+]([O-])/N=C1\NCCN1Cc1ccc(Cl)nc1 [Imidacloprid]	39.9 ± 8	3.82 ± 0.41	6.8 ± 1.8	7.69 ± 1.4	49 ± 6.3	50.2 ± 4.6	43.2 ± 2.7	53.3 ± 7.2	77.5 ± 3.8	47.6 ± 4
CCOC(=O)c1ccc(N)cc1 [Benzocain]	39.3 ± 3.4	23.5 ± 1.9	23.3 ± 1.7	26.3 ± 2.2	14.6 ± 2.6	18.4 ± 1.5	14.4 ± 2.3		64.9 ± 4.3	32.9 ± 5.6
NC(=O)N1c2ccccc2C=Cc2ccccc21 [Carbamazepine]	48.5 ± 5.5	22.2 ± 1.2	28.4 ± 2.1	30.7 ± 1.8	25.4 ± 2.9	21.1 ± 2.3	13.6 ± 1.4	52.6 ± 6.1	72.3 ± 2.5	61.4 ± 6.2
CN(C)c1nc(=O)n(C2CCCCC2)c(=O)n1C [Hexazinone]	45.4 ± 3.4	36.1 ± 1.9	42.2 ± 4.5	44.5 ± 2.9	38.9 ± 6.6		22.5 ± 4.4	48.5 ± 4.3		51.5 ± 4.8
c1ccc(Nc2cccc3ccccc23)cc1 [N-Phenyl-1-naphthylamine]	45.8 ± 14	4.16 ± 1.3	6.12 ± 3.5	6.6 ± 1.1	2.23 ± 1.6	2.7 ± 0.69	1.86 ± 0.51	18.7 ± 4.1	83.2 ± 5.3	
Clc1ccc2[nH]nnc2c1 [5-Chlorobenzotriazole]	41.8 ± 2.6	0.3 ± 0.043	0.905 ± 0.21	1.34 ± 0.43	55.2 ± 9.2	55.2 ± 5	52.3 ± 6.8	52.8 ± 6.1	59.3 ± 5	44.7 ± 2.5
CNC(=O)/C(=N/OC)c1ccccc1COc1cc(C)ccc1C [Dimoxystrobin]	35.7 ± 4	42.8 ± 4.3	44.9 ± 3.4	43.2 ± 1.9	3.56 ± 3.1	9.02 ± 0.83	7.35 ± 0.63	50.3 ± 9.1	72.7 ± 5.8	60.1 ± 20
c1ccc(-c2cccc(-c3ccccc3)c2)cc1 [m-Terphenyl]	0.761 ± 0.18	90.2 ± 24	86.8 ± 18	101 ± 37	1.91 ± 3.3	2.9 ± 2.5	2.74 ± 2.4	2.42 ± 4.8	34.3 ± 1.4	
N#Cc1nn(-c2c(Cl)cc(C(F)(F)F)cc2Cl)c(N)c1S(=O)(=O)C(F)(F)F [Fipronil sulfone]	36.7 ± 3.6	27.8 ± 0.78	32.2 ± 2.1	31 ± 0.79	41.6 ± 14	34.1 ± 7.7	30.8 ± 9.5	67.9 ± 8.3	67.4 ± 7.9	
CCC(CC)Nc1c([N+](=O)[O-])cc(C)c(C)c1[N+](=O)[O-] [Pendimethalin]	39 ± 11	45.8 ± 3	46.4 ± 4.9	47.5 ± 6.3		0.1 ± 0.17		32.3 ± 7.6	87.6 ± 9.3	
CCOP(=O)(OCC)OC(=CCl)c1ccc(Cl)cc1Cl [Chlorfenvinphos]		43.3 ± 1.2	44.3 ± 3.6	44.1 ± 0.92	0.151 ± 0.26			49.5 ± 8.3		
CN1CCCC(n2nc(Cc3ccc(Cl)cc3)c3ccccc3c2=O)CC1 (stereo not given) [Azelastine]		0.00383 ± 0.0066		0.00617 ± 0.0099	1.03 ± 0.14	1.27 ± 0.31	0.461 ± 0.41	43.9 ± 6	64.8 ± 3.2	
CCOP(=S)(OCC)Oc1cc(C)nc(C(C)C)n1 [Diazinon]		31.2 ± 2.3	34 ± 2.4	34 ± 0.57	0.161 ± 0.14	0.223 ± 0.071	0.073 ± 0.064	38 ± 6.1	62.9 ± 4.1	
CC(=O)OCC(=O)[C@@]12OC3(CCCC3)O[C@@H]1C[C@H]1[C@@H]3CCC4=CC(=O)C=C[C@]4(C)[C@@]3(F)[C@@H](O)C[C@@]12C [Amcinonide]		35.6 ± 2.6	38.1 ± 2.4	35.6 ± 2.7	1.91 ± 3.3	1.48 ± 2.6		39.5 ± 7.4		
Nc1cccc2ccccc12 [1-Naphthylamine]	16.7 ± 8.8		0.33 ± 0.13	0.338 ± 0.048	11.2 ± 0.88	12.3 ± 2.6	6.22 ± 5.4	22 ± 3		4.07 ± 2.1
CC(C)(C)NC(=O)[C@H]1CC[C@H]2[C@@H]3CC[C@H]4NC(=O)C=C[C@]4(C)[C@H]3CC[C@]12C [Finasteride]		32.6 ± 3	37.9 ± 1.4	38.5 ± 0.91	9.28 ± 1.5	5.81 ± 1.2	3.05 ± 0.42	47.9 ± 6.3		
CC(C)(C)c1ccc(C(=O)CCCN2CCC(OC(c3ccccc3)c3ccccc3)CC2)cc1 [Ebastin]		0.444 ± 0.073	0.712 ± 0.075	0.469 ± 0.24	0.574 ± 0.23			36.2 ± 9		
CCc1cccc(C)c1N(C(=O)CCl)C(C)COC (stereo not given) [Metolachlor]	38.1 ± 1.9	37.3 ± 1.4	40.7 ± 3.2	40.6 ± 1.1	0.504 ± 0.043	0.63 ± 0.12	0.323 ± 0.0041	47.6 ± 6.7		37.9 ± 5.3
CC(C)(Oc1ccc(CCNC(=O)c2ccc(Cl)cc2)cc1)C(=O)O [Bezafibrate]	45.5 ± 3.2	0.000935 ± 0.0016	0.00082 ± 0.0014		52.7 ± 6.2	56.9 ± 2.6	53.6 ± 2.6	52.7 ± 4.8	74.9 ± 2.3	47.8 ± 3.6
O=S(=O)(O)NC1CCCCC1 [Cyclamate]	7.88 ± 2.3		0.0113 ± 0.022	0.00679 ± 0.0059	7.95 ± 6.1	5.41 ± 0.92	8.35 ± 3.4		71.8 ± 4.1	5.77 ± 0.89
